Measured values reported in US8598357B2, “Benzodioxole piperidine compounds” (Hoffmann-La Roche Inc., priority 2011, dated 2013).
Like-named read-outs stand apart in the source and are kept apart here.

What was measured:
[1] = biological target: 5-HT2A receptor (Homo sapiens (Human), UniProt P28223); assay: Radioligand binding assay ([3H]-ketanserin) on membranes of HEK293 EBNA cells expressing human 5-HT2A receptor; details: read-out: 5HT2A Ki
Procedure: (§1) HEK293 EBNA cells were transiently transfected with expression plasmids encoding for the human D2 or D3 or for the human 5-HT2A receptor, respectively. The cells were harvested 48 h post-transfection, washed three times with cold PBS and stored at −80° C. prior to use. The pellet was suspended in cold 50 mM Tris-HCl buffer containing 10 mM EDTA (pH 7.4) and was homogenized with a Polytron (Kinematica AG, Basel, Switzerland) for 20-30 sec at 12.000 rpm. After centrifugation at 48.000×g for 30 min at 4° C., the pellet was resuspended in cold 10 mM Tris-HCl buffer containing 0.1 mM EDTA (pH 7.4), homogenized, and centrifuged as above. This pellet was further resuspended in a smaller volume of ice cold 10 mM Tris-HCl buffer containing 0.1 mM EDTA (pH 7.4) and homogenized with a Polytron for 20-30 sec at 12.000 rpm. The protein content of this homogenate was determined with the Bio-Rad (Bradford) Protein Assay (Biorad Laboratories GmbH, München, Germany) according to the instructions of the manufacturer using gamma globulin as the standard. This homogenate was stored at −80° C. in aliquots and thawed immediately prior to use.
(§2) Aliquots of membrane preparations were thawed at RT, resuspended in assay buffer (D2, D3: 50 mM Tris-HCl, 120 mM NaCl, 5 mM MgCl2, 1 mM EDTA, 5 mM KCl, 1.5 mM CaCl2, pH=7.4; 5-HT2A: 50 mM Tris-HCl, 10 mM MgCl2, 1 mM EGTA, pH=7.4), homogenized with a Polytron for 20-30 sec at 12.000 rpm and adjusted to a final concentration of approximately 7.5 μg protein/well (D2, D3) and 15 μg protein/well (5-HT2A), respectively.
(§3) The nonspecific binding was determined with equally composed reaction mixtures in the presence of 10 μM unlabelled spiperone. Per well 45 μl of Microscint 40 (Perkin Elmer, Schwerzenbach, Switzerland) was added, plates for sealed, shaken for 20 min and counted for 3 min on a Topcount Microplate Scintillation Counter (Can berra Packard SA, Ziirich, Switzerland) with quenching correction.
(§4) The CPM value for each duplicate of a concentration of competing compound was averaged (y1), then the % specific binding was calculated according to the equation (((y1−non-specific)/(total binding−non-specific))×100). Graphs were plotted with the % specific binding using XLfit, a curve fitting program that iteratively plots the data using Levenberg-Marquardt algorithm. The single site competition analysis equation used was y=A+((B−A)/(1+((x/C)D))), where y is the % specific binding, A is the minimum y, B is the maximum y, C is the IC50, x is the log 10 of the concentration of the competing compound and D is the slope of the curve (the Hill Coefficient). […] The affinity constant (K) was calculated using the Cheng-Prusoff equation Ki=(IC50/1+([L]/Kd), where [L] is the concentration of radioligand and Kd is the dissociation constant of the radioligand at the receptor as determined by the saturation isotherm.

[2] = biological target: D3 receptor (Homo sapiens (Human), UniProt P35462); assay: Radioligand binding assay ([3H]-spiperone) on membranes of HEK293 EBNA cells expressing human D3 receptor; details: read-out: D3 Ki; human receptor in HEK293 EBNA cells; 0.5 nM [3H]-spiperone
Sequence of D3 receptor (P35462 whole entry): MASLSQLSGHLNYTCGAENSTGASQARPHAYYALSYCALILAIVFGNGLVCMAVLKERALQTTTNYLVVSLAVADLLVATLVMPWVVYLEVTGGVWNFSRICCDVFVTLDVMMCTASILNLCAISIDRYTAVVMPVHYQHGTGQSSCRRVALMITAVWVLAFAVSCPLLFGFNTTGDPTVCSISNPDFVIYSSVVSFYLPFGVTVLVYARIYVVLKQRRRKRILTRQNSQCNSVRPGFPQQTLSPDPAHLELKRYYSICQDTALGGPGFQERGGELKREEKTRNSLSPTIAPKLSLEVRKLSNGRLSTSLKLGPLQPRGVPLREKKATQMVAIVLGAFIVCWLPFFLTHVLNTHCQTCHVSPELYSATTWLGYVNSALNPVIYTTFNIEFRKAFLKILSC
Procedure: as §1, §2, §3, §4

[3] = biological target: D2 receptor (Homo sapiens (Human), UniProt P14416); assay: Radioligand binding assay ([3H]-spiperone) on membranes of HEK293 EBNA cells expressing human D2 receptor; details: human receptor in HEK293 EBNA cells; 0.7 nM [3H]-spiperone
Sequence of D2 receptor (P14416 whole entry): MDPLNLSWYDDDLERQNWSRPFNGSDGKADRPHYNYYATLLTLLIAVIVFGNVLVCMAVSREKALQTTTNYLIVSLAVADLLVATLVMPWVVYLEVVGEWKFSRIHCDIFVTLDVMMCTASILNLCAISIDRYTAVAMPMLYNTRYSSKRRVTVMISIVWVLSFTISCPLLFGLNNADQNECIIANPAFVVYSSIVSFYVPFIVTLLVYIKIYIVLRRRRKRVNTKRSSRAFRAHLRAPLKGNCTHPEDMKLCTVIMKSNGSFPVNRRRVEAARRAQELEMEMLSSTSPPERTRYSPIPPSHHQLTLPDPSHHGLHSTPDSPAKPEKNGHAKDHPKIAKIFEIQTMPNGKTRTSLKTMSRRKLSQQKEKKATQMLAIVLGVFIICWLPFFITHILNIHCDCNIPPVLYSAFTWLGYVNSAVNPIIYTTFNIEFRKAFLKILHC
Procedure: as §1, §2, §3, §4

[4] = human receptor in HEK293 EBNA cells, 1.1 nM [3H]-ketanserin

Row | Structure (SMILES) | Ki [1, 4] [nM] | Ki [2] [nM] | Ki [3] [nM] | Ki [1] [nM]
1 | Cn1cnc(S(=O)(=O)N[C@H]2CC[C@H](CCN3CCC(c4cccc5c4OCO5)CC3)CC2)c1 [Example 72, 1-Methyl-1H-imidazole-4-sulfonic acid-trans-N-{4-[2-(4-benzo[1,3]dioxol-4-yl-piperidin-1-yl)-ethyl]-cyclohexyl}-amide] | 64.8 | 12.4 | 114 | –
2 | O=C(N[C@H]1CC[C@H](CCN2CCC(c3cccc4c3OCO4)CC2)CC1)C(F)(F)F [Example 73, Trans-N-{4-[2-(4-Benzo[1,3]dioxol-4-yl-piperidin-1-yl)-ethyl]-cyclohexyl}-2,2,2-trifluoro-acetamide] | 37.4 | 21.4 | 346 | –
3 | O=C(N[C@H]1CC[C@H](CCN2CCC(c3cccc4c3OCO4)CC2)CC1)N1CCc2ccccc21 [Example 74, 2,3-Dihydro-indole-1-carboxylic acid N-trans-{4-[2-(4-benzo[1,3]dioxol-4-yl-piperidin-1-yl)-ethyl]-cyclohexyl}-amide] | – | 5.12 | 229 | 25.4
4 | CN(C)C(=O)N[C@H]1CC[C@H](CCN2CCC(c3cccc4c3OCO4)CC2)CC1 [Example 75, N-Trans-3-{4-[2-(4-Benzo[1,3]dioxol-4-yl-piperidin-1-yl)-ethyl]cyclohexyl}-1,1-dimethyl-urea] | 45.5 | 32.9 | 52.7 | –
5 | O=C(CF)N[C@H]1CC[C@H](CCN2CCC(c3cccc4c3OCO4)CC2)CC1 [Example 76, Trans-N-{4-[2-(4-Benzo[1,3]dioxol-4-yl-piperidin-1-yl)-ethyl]-cyclohexyl}-2-fluoro-acetamide] | 39.9 | 12.4 | 230 | –
6 | O=C(Nc1ccc(Cl)cc1)N[C@H]1CC[C@H](CCN2CCC(c3cccc4c3OCO4)CC2)CC1 [Example 77, N-trans-1-{4-[2-(4-Benzo[1,3]dioxol-4-yl-piperidin-1-yl)-ethyl]-cyclohexyl}-3-(4-chloro-phenyl)-urea] | 224 | 23.6 | 2710 | –
7 | CN(C)S(=O)(=O)N[C@H]1CC[C@H](CCN2CCC(c3cccc4c3OCO4)CC2)CC1 [Example 78, Trans-N-{4-[2-(4-benzo[1,3]dioxol-4-yl-piperidin-1-yl)-ethyl]-cyclohexyl}-N,N-dimethyl-sulfamide] | 20.7 | 11.6 | 229 | –
8 | O=S(=O)(N[C@H]1CC[C@H](CCN2CCC(c3cccc4c3OCO4)CC2)CC1)N1CCOCC1 [Example 79, Morpholine-4-sulfonic acid-Trans-N-{4-[2-(4-benzo[1,3]dioxol-4-yl-piperidin-1-yl)-ethyl]-cyclohexyl}-amide] | – | 6.11 | 229 | 56.1
